The record followed here is article PMC11322525, “Dihydrolipoamide dehydrogenase (DLD) is a novel molecular target of bortezomib” (Cell Death & Disease, 2024).

One test deals with T1, PSMB5 (Homo sapiens, UniProt P28074).
T1 construct: recombinant isolated subunit, customized by DetaiBio; His-tag labelling for MST implies His tag
T1 sequence (P28074 60-263): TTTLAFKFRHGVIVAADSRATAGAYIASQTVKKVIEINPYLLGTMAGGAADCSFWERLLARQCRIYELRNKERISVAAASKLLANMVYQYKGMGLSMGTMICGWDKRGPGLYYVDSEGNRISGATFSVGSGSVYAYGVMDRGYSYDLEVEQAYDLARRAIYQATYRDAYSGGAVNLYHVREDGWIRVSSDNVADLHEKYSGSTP
Briefly: microscale thermophoresis. The conditions noted are these: unmodified bortezomib; positive control (protein of the control panel not named in the legend); isolated recombinant subunit. It is filed as binding.

The target of test [1] is T2, DLD (dihydrolipoamide dehydrogenase) (Homo sapiens, UniProt P09622).
T2 construct: recombinant, customized by DetaiBio; His-tag labelling (RED-tris-NTA) for MST implies His tag
T2 sequence (P09622 36-509): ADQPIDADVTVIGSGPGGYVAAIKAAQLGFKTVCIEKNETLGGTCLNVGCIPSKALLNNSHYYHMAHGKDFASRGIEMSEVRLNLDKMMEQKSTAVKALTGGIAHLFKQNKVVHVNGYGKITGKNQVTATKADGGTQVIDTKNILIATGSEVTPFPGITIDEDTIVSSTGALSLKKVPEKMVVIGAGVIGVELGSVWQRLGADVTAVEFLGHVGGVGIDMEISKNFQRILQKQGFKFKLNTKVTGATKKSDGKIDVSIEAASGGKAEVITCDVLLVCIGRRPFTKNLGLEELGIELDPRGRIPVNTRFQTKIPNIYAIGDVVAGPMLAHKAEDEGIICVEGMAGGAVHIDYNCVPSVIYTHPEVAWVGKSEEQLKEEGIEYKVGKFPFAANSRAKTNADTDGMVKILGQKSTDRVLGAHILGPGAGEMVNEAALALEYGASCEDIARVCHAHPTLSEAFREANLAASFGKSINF
Briefly: microscale thermophoresis. The class given is binding. The conditions noted are these: unmodified bortezomib; His-tag RED-tris-NTA labelled protein; unit not given.

For `CC(C)C[C@H](NC(=O)[C@H](Cc1ccccc1)NC(=O)c1cnccn1)B(O)O` [bortezomib], the KD result on PSMB5 was “binding affinity of BTZ to DLD and to PSMB5”; in test [1], 1.38 ± 0.51 E-7.
